Test results published in ChEMBL document CHEMBL5696442, “Discovery of type II inhibitors of TGFβ-activated kinase 1 (TAK1) and mitogen-activated protein kinase kinase kinase kinase 2 (MAP4K2)” (J Med Chem, 2015).
Calls of active or inactive are those of the source. The calls are words filed in the database; no cut-off is given here.

Legend:
[1] = molecular target: Serine/threonine-protein kinase B-raf (Homo sapiens, UniProt P15056); test: Inhibition of BRAF Lys2 labeling site in human Huh-7 cell lysate at 1 uM by KiNativ Profiling analysis relative to control; type: subcellular
Serine/threonine-protein kinase B-raf, sequence (P15056 whole entry): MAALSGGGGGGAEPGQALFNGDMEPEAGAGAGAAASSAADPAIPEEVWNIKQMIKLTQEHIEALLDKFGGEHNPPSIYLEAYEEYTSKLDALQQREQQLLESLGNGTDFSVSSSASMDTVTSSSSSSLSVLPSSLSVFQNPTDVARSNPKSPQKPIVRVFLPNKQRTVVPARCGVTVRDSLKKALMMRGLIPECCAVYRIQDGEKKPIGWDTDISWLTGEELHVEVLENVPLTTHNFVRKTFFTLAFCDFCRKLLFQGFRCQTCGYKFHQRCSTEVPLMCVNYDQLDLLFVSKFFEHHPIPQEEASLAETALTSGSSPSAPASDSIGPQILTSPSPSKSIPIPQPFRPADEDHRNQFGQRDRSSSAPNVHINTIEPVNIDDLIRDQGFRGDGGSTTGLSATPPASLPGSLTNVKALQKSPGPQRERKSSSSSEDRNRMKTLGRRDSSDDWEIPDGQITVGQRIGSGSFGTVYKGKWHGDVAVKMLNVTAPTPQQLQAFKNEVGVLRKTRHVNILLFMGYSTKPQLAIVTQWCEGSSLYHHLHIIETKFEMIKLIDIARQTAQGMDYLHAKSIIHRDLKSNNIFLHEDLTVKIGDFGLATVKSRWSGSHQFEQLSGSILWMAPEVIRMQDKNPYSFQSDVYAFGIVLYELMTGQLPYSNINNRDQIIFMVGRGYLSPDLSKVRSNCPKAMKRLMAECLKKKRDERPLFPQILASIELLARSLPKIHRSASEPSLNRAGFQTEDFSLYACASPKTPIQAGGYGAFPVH

[2] = molecular target: Cyclin-dependent kinase 2 (Homo sapiens) (UniProt P24941); test: Inhibition of CDK2 Lys1 labeling site in human Huh-7 cell lysate at 1 uM by KiNativ Profiling analysis relative to control; type: subcellular
[3] = molecular target: T1, Mitogen-activated protein kinase kinase kinase kinase 2 (Homo sapiens) (UniProt Q12851); test: Inhibition of MAP4K2 (GCK) Lys1 labeling site in human Huh-7 cells at 1 uM by KiNativ Profiling analysis relative to control; type: cell-based
T1 sequence (whole entry): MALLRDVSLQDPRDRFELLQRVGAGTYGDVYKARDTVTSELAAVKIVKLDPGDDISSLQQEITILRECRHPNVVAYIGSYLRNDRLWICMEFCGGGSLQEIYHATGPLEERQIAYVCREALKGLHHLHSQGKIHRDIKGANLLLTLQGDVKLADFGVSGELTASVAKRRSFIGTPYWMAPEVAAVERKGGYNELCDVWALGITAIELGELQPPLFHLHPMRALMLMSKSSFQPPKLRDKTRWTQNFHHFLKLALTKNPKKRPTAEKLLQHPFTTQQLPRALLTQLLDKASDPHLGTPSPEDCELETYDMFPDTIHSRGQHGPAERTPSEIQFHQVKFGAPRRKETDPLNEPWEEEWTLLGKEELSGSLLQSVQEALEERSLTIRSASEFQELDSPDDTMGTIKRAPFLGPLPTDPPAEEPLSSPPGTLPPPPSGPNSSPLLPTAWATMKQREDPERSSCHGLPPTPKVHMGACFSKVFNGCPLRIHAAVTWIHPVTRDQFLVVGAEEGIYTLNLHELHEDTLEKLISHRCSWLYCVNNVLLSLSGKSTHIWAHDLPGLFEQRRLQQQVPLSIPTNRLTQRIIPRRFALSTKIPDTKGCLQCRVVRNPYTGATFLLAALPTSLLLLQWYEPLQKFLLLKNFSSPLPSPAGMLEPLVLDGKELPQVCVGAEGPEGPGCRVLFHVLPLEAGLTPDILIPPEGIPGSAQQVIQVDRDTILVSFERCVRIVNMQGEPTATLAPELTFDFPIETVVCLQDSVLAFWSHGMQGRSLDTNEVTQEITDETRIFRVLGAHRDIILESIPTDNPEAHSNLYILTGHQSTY

[4] = molecular target: Ribosomal protein S6 kinase alpha-2 (Homo sapiens) (UniProt Q15349); test: Inhibition of C-terminal RPS6KA2 kinase domain 2 (unknown origin) at 10 uM by Ambit Kinomescan binding assay
[5] = molecular target: Mitogen-activated protein kinase kinase kinase 20 (Homo sapiens, UniProt Q9NYL2); test: Inhibition of ZAK K1 labeling site in human Huh-7 cells at 10 uM by KiNativ Profiling analysis relative to control; type: cell-based
Mitogen-activated protein kinase kinase kinase 20, sequence (Q9NYL2 2-800 limits assumed): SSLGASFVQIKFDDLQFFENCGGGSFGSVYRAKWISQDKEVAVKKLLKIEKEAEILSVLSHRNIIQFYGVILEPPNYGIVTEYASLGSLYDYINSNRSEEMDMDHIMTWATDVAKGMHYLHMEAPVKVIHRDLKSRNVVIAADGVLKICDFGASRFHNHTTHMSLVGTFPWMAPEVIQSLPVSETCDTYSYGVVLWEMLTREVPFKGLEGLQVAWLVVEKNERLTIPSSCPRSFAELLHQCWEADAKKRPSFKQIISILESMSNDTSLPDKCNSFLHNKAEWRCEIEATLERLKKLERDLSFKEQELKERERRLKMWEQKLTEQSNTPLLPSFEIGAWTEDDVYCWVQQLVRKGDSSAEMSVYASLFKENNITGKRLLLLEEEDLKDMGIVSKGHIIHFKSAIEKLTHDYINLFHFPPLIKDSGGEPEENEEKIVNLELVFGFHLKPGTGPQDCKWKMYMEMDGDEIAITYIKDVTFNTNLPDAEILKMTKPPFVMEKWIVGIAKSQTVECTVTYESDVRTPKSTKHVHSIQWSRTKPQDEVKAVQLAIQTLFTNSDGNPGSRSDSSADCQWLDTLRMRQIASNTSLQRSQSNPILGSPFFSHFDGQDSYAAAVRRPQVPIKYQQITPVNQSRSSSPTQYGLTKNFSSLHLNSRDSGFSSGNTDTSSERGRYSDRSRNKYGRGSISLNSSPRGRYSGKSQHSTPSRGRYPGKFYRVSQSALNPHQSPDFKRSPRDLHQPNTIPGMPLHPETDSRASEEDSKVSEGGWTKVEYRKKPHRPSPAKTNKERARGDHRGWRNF

[6] = molecular target: Focal adhesion kinase 1 (Homo sapiens) (UniProt Q05397); test: Inhibition of FAK K1 labeling site in human Huh-7 cells at 1 uM by KiNativ Profiling analysis relative to control; type: cell-based
Focal adhesion kinase 1 (Homo sapiens), sequence (Q05397 2-1052 limits assumed): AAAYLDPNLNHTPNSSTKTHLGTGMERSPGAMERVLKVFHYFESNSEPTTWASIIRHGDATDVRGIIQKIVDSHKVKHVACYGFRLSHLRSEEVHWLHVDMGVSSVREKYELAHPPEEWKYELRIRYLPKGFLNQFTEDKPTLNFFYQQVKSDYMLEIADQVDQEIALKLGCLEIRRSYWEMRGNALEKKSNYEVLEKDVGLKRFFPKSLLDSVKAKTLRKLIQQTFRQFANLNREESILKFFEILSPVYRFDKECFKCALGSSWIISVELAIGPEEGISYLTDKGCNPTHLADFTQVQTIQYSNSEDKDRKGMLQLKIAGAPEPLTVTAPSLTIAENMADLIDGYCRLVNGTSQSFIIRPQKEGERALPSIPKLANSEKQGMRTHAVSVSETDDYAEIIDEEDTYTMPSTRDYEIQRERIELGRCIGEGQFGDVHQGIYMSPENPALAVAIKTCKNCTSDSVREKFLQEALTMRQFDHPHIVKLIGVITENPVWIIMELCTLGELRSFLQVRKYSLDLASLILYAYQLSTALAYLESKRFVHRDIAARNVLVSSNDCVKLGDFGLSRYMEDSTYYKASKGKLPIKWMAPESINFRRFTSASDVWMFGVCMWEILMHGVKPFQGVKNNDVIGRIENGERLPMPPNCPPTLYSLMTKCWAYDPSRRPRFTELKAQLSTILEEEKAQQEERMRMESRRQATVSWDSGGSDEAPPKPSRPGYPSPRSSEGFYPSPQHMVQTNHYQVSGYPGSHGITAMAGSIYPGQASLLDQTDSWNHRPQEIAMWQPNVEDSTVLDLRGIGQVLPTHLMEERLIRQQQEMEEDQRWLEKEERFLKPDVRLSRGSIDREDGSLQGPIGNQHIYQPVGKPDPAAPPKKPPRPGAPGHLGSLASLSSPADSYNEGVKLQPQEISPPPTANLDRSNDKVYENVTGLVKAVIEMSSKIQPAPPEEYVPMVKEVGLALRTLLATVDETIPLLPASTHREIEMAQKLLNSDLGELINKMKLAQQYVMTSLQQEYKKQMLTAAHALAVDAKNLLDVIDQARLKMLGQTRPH

[7] = molecular target: RAC-alpha serine/threonine-protein kinase (Homo sapiens) (UniProt P31749); test: Inhibition of AKT1 (unknown origin) at 1 uM by Ambit Kinomescan binding assay relative to control
RAC-alpha serine/threonine-protein kinase (Homo sapiens), sequence (P31749 whole entry): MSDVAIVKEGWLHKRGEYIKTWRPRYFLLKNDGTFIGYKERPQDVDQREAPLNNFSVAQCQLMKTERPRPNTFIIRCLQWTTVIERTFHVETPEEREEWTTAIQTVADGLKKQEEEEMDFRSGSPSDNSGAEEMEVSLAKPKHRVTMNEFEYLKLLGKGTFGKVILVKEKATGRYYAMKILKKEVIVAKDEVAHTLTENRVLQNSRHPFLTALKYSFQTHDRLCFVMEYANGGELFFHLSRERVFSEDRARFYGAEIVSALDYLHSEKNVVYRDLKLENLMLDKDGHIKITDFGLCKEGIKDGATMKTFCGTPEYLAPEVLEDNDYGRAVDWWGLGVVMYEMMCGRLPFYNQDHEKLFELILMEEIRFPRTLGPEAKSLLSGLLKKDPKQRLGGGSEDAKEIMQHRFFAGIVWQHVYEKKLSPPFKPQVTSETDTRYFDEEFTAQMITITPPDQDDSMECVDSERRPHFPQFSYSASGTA

[8] = molecular target: 5'-AMP-activated protein kinase catalytic subunit alpha-1 (Homo sapiens) (UniProt Q13131); test: Inhibition of AMPK-alpha1 (unknown origin) at 1 uM by Ambit Kinomescan binding assay relative to control
[9] = molecular target: Casein kinase I isoform epsilon (Homo sapiens) (UniProt P49674); test: Inhibition of CK1epsilon Lys2 labeling site in human A-375 cells at 5 uM by KiNativ Profiling analysis relative to control; type: cell-based
Casein kinase I isoform epsilon (Homo sapiens), sequence (P49674 whole entry, looked up, canonical isoform): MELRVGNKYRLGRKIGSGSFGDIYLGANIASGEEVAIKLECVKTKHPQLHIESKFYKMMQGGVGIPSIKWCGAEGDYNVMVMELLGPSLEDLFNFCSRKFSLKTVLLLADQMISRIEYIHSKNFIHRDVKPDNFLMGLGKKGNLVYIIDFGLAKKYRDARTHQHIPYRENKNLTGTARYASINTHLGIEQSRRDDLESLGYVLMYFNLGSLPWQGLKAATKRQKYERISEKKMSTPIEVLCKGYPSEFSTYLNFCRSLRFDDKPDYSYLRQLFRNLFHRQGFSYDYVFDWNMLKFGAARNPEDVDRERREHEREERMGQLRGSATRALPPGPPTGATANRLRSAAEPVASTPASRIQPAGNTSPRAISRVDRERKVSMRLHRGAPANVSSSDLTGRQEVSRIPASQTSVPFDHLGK

[10] = molecular target: T2, Serine/threonine-protein kinase D3 (Homo sapiens) (UniProt O94806); test: Inhibition of PKD3 Lys2 labeling site in human A-375 cells at 5 uM by KiNativ Profiling analysis relative to control; type: cell-based
T2 sequence (whole entry): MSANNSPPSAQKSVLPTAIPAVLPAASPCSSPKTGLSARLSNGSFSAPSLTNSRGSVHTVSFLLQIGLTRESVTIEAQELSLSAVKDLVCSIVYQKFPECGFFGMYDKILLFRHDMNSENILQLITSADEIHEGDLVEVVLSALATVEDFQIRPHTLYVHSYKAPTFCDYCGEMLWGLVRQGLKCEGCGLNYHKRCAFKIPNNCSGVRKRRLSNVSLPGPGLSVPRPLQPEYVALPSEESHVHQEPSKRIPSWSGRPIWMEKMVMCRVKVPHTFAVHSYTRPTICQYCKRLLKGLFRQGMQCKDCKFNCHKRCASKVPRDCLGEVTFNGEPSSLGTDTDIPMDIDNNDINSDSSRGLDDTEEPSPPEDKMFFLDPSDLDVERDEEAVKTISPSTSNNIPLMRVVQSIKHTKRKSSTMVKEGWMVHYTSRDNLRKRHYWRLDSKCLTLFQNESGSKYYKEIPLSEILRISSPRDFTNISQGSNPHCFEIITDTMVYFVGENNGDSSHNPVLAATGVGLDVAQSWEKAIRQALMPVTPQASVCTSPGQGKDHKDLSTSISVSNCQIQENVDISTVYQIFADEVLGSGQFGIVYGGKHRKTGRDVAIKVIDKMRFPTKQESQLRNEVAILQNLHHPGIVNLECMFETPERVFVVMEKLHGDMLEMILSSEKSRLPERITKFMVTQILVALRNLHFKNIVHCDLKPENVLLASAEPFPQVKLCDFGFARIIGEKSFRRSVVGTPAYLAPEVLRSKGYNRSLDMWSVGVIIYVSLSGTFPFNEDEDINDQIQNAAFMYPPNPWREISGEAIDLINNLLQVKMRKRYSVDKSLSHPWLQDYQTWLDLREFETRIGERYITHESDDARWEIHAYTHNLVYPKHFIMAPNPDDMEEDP

[11] = molecular target: Cyclin-dependent kinase 5 (Homo sapiens) (UniProt Q00535); test: Inhibition of CDK5 Lys1 labeling site in human A-375 cells at 0.5 uM by KiNativ Profiling analysis relative to control; type: cell-based
[12] = molecular target: Serine/threonine-protein kinase MARK2 (Homo sapiens) (UniProt Q7KZI7); test: Inhibition of MARK2 Lys2 labeling site harbouring FIVHRDLKAENLLLDADMNIK in human A-375 cells at 0.5 uM by KiNativ Profiling analysis relative to control; type: cell-based
[13] = molecular target: Mitogen-activated protein kinase 3 (Homo sapiens) (UniProt P27361); test: Inhibition of Erk1 Lys2 labeling site harbouring YIHSANVLHRDLKPSNLLINTTCDLK in human A-375 cells at 0.05 uM by KiNativ Profiling analysis relative to control; type: cell-based
Mitogen-activated protein kinase 3 (Homo sapiens), sequence (P27361 whole entry): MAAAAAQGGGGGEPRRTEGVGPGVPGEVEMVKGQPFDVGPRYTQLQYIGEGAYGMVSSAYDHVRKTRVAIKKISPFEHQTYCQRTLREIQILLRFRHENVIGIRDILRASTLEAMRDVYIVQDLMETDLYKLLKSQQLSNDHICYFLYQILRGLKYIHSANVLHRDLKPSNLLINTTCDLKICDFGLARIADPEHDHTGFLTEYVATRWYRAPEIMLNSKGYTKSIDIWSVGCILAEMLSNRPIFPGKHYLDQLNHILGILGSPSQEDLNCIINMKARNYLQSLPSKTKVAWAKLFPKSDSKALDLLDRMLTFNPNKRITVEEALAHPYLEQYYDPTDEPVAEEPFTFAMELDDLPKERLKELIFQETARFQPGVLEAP

[14] = system: Mast/stem cell growth factor receptor Kit (Homo sapiens), P10721 [L576P]; test: Inhibition of KIT L576P mutant (unknown origin) at 1 uM by Ambit Kinomescan binding assay relative to control; values are per cent of control
Mast/stem cell growth factor receptor Kit (Homo sapiens), P10721 [L576P], sequence (P10721 whole entry L576P): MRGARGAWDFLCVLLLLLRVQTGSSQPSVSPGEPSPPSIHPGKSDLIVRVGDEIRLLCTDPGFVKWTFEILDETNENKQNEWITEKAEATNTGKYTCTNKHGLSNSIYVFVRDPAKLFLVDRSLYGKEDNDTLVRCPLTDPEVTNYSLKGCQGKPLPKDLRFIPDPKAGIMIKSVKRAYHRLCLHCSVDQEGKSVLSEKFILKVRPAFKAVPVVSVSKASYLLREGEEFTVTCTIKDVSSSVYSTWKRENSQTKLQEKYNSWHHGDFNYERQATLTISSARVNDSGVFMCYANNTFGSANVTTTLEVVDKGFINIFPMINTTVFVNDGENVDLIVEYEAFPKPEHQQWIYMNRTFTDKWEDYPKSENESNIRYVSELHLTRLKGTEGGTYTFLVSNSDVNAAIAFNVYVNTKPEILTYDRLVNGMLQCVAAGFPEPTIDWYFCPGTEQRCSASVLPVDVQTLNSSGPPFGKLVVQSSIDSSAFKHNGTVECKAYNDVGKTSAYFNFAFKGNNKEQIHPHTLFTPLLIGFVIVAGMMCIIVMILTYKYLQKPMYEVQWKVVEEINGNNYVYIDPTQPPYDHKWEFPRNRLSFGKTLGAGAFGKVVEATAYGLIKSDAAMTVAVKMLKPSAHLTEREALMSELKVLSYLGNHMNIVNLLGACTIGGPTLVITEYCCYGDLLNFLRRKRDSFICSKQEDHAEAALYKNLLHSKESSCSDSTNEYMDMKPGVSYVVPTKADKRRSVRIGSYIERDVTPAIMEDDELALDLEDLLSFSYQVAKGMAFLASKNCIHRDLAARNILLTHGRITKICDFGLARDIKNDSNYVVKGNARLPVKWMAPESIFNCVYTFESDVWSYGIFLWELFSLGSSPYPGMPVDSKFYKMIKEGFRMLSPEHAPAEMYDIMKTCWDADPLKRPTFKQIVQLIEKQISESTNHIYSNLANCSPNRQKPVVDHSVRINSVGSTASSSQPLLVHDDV

CNc1cc(Oc2cc(C(=O)Nc3cc(N4CCN(C)CC4)cc(C(F)(F)F)c3)ccc2C)ncn1
inhibition [1]: -1.4% | inhibition [2]: 17.7% | inhibition [3]: 88.3%

CCN1CCN(Cc2ccc(NC(=O)c3ccc(C)c(Oc4ccnc5[nH]ccc45)c3)cc2C(F)(F)F)CC1
inhibition [4]: inactive | inhibition [5]: 83.4% | inhibition [6]: 32%

CCN1CCN(Cc2ccc(NC(=O)c3ccc(C)c(/C=C/c4cnc5[nH]ccc5c4OC)c3)cc2C(F)(F)F)CC1
inhibition [7]: 100% | inhibition [8]: 25% | inhibition [9]: 1.4% | inhibition [10]: 7.3% | inhibition [11]: -4.1% | inhibition [12]: 2.9% | inhibition [13]: -5.4% | residual activity [14]: 0.15%
